In patent publication US6423855B1, “Cytoprotective compounds” (Virginia Commonwealth University, priority 1996, dated 2002):
Values after ≈ are worked out from the molar mass of the structure shown.

Legend:
outer skin layers = test: skin moisturization (20 megahertz ultrasound); format: in vivo, human; details: for Ultrasound Density Score: 30 minutes after application
Experimental: (§1) Two PX compounds PX-11 and PX-13 were evaluated in a cream formulation prepared under GMP. The chemicals were formulated into a bland cream and evaluated in the following human or mouse skin tests: (1) occluded patch test for irritation; (2) cell turnover rate; (3) transepidermal water loss; (4) skin moisturization; and (5) reduction in erythema after induced sunburn. The human skin tests were conducted on three volunteer female subjects, ages 29-32; a cream base with no added active was included as a control, while the untreated skin served as an additional basis for evaluation. Sunburn tests were performed on a total of 30 hairless albino mice. 4. Skin moisturization. Skin moisturization was measured using 20 megahertz ultrasound (the presence of moisture produces a density decrease in the outer skin layers), before and 30 minutes after product application to the forearm.

[1] = tested on: rat dorsal root ganglion cells; test: cultured rat dorsal root ganglion cells exposed to snake venom PLA2; format: cell-based; details: 1-3 umols/min/mg for 60 min
epidermal layer = test: transepidermal water loss; format: in vivo, human
Experimental: as §1, with “3. Transepidermal water loss. This parameter” for “4. Skin moisturization. Skin moisturization”, “by affixing a flow cell on the forearm site, applying the cream, waiting” for “using”, “minutes, then flushing the volume with nitrogen and noting the moisture content” for “megahertz ultrasound (the presence”, “of” for “of moisture produces a density decrease in”, “effluent gases.” for “outer skin layers), before and 30 minutes after product application to the forearm.”

[2] = tested on: human NP-homogenate induced paw edema; test: nucleus pulposus (NP)-induced mouse paw edema; format: in vivo
Experimental: Human NP-homogenate was prepared according to the following protocol and stored frozen until use. Human vertebral discs were thawed and the tissue pieces were washed twice with isotonic saline. Tissue samples were homogenized in a minimum volume of isotonic saline using a Brinkman homogenizer. This homogenate was filtered through two layers of cheesecloth and the resultant filtrate was subjected to Dounce homogenization. This homogenate was again filtered through two layers of cheesecloth and the filtrate was capable of passing through a 26-gauge needle; 50 ul of the filtrate was administered to each mouse paw.
The filtrate contained 1.57 mg/ml of protein and its PLA2 activity was 12.8% hydrolysis of 10 nmols of E.coli phospholipid/10 ul filtrate/30 min. incubation at 37° C. Therefore, each mouse paw received 78.5 ug NP filtrate. This sample of 78,500 ng total protein contained approximately 4.3 ng NP PLA2 protein. By comparison, we use 500-2000 ng of highly purified PLA2 to induce edema in this mouse model; and under these experimental conditions the maximal edema achieved is 160% of the contralateral paw minus 4-7% edema due to saline injection alone.
The data are expressed as percent of contralateral paw and as percent of maximal edema achieved with purified PLA2. Fifty ul (78.5 ug) was injected into the paw 30 min. after the mice were treated with PX-13 in HEPES administered IP or by gavage at 30 or 60 mg/kg. After 3 hrs,the paws were excised and weighed.

mice = test: acute toxicity (LD50 study), single IP dose; format: in vivo
Experimental: An LD50 study was conducted to determine a lethal dose for PX-13 suspended in HEPES buffer at a pH of 7.4. A single IP dose of 50, 100, 200 or 400 mg/kg was administered to mice (n=6 per group). […] No necropsy was performed.

[3] = peroxidation (malondialdehyde formation) of homogenized rat bowel
Experimental: These drugs were also tested for their ability to enhance the preservation of tissues stored for subsequent transplantation. The small bowel was removed from rats, washed free of luminal contents and the tissue stored in University of Wisconsin (UW) preservative media ±40 uM PX-13 or mepacrine for 48 hrs. The graft was then transplanted into rats with or without intravenous (IV) infusion of 20 mg/kg PX-13 or mepacrine at the time of transplantation. Upon transplantation, the bowel is immediately injured as evidenced by tissue darkening within two minutes. […] Both PX-13 and mepacrine inhibit the peroxidation (malondialdehyde formation) of homogenized rat bowel, an indication that the membrane-stabilizing, PLA2-inhibitors, also have anti-oxidant activity.

[4] = tested on: thrombin-stimulated platelets; test: serotonin release by thrombin-stimulated platelets; format: cell-based
Source text: Applicants have also observed that PX-13 inhibited serotonin release by thrombin-stimulated platelets. This observation supports the contention that the PX compounds of the present invention may block release of inflammatory mediators in the coagulation cascade. This observation also supports the use of PX compounds to inhibit thrombin-induced platelet aggregation and to act as anti-clotting agents.

epidermis cell turnover = test: cell turnover rate (dansyl chloride); format: in vivo, human
Experimental: Two PX compounds PX-11 and PX-13 were evaluated in a cream formulation prepared under GMP. The chemicals were formulated into a bland cream and evaluated in the following human or mouse skin tests: (1) occluded patch test for irritation; (2) cell turnover rate; (3) transepidermal water loss; (4) skin moisturization; and (5) reduction in erythema after induced sunburn. The human skin tests were conducted on three volunteer female subjects, ages 29-32; a cream base with no added active was included as a control, while the untreated skin served as an additional basis for evaluation. Sunburn tests were performed on a total of 30 hairless albino mice. 2. Cell turnover rate: This parameter was measured by adsorption of dansyl chloride, in which 3% dansyl chloride was incorporated into petrolatum. This salve was applied over a 2.5 cm diameter circular area in the upper arm and a patch applied. 24 hours later the patch was removed. The intensity of dansyl chloride fluorescence was indicative of the cell turnover rate in the epidermis.

pancreatin = test: degradation in vitro by pancreatin; format: in vitro ADME; details: commercial pancreatic enzyme preparation (Sigma)
Source text: The compounds of the present invention are not generally hydrolyzed by pancreatic enzymes and are different from glycerol-based compounds in terms of their chemistry and metabolism. […] The resistance of PX-13 and PX-18 to metabolism by pancreatic enzymes supports their stability after oral administration.

clone W2 (P.falciparum) = test: 3H-hypoxanthine incorporation, P.falciparum clone W2; format: cell-based; details: Plasmodium falciparum, W2; chloroquine resistant, mefloquine sensitive clone, RBC culture; read-out: IC50 growth

CCCCCCCC/C=C\CCCCCCCC(=O)OCC(COC(=O)CCCCCCC/C=C\CCCCCCCC)(COC(=O)CCCCCCC/C=C\CCCCCCCC)NCCS(=O)(=O)O [PX-13, 2-[Tris(oleoyloxymethyl)methylamino]-1-ethanesulfonic acid]
Ultrasound Density Score (outer skin layers; Subject 1, 7 = Best, 1 = Baseline): 1 | Ultrasound Density Score (outer skin layers; Subject 2): 2 | Ultrasound Density Score (outer skin layers; Subject 3): −1 | Ultrasound Density Score Total (outer skin layers; Total of 3 subjects, 7 = Best, 1 = Baseline): 2 | moisturization properties (outer skin layers; in vivo): not good moisturizers | protection against toxicity of purified snake venom PLA2 [1]: protected | % Change in Transepidermal Water Loss (epidermal layer; forearm, 20 minutes after applying cream): −8.5% | effect on water loss from the epidermal layer (epidermal layer; in vivo): functioned as an occluding moisturizer | Percent Edema ([2]; Gavage 30 mg/kg): 122 ± 5.6% | Percent Edema ([2]; Gavage 60 mg/kg): 118 ± 2.0% | Percent of Maximal ([2]; Gavage 60 mg/kg): 22% | Percent Inhibition ([2]; Gavage 60 mg/kg, 60 mg/kg): 36% | Percent Inhibition ([2]; IP 30 mg/kg): 24% | Percent of Maximal ([2]; IP 30 mg/kg, maximal edema with purified PLA2 = 54%): 26% | Percent Edema ([2]; IP 30 mg/kg, percent of contralateral paw, 3 hrs): 120 ± 2.0% | Percent Edema ([2]; IP 60 mg/kg): 115 ± 1.6% | Percent of Maximal ([2]; IP 60 mg/kg): 17% | Percent Inhibition ([2]; IP 60 mg/kg, 60 mg/kg): 50% | deaths at 144 hrs (mice; 400 mg/kg group, n=6): one animal in the 400 mg/kg group died | tolerability (mice; mouse, in vivo): extremely well tolerated | peroxidation (malondialdehyde formation) [3]: inhibit | serotonin release [4]: inhibited | Days to Cell Renewal Treated (epidermis cell turnover; cream-treated skin, upper arm): 21.6 days | % Change in Cell Turnover Time (epidermis cell turnover; treated vs untreated skin): −29% | degradation in vitro by pancreatin (pancreatin): resistant to degradation | IC50 (clone W2 (P.falciparum)): 13 µg/mL (≈ 12.7 µM)
